PMC6614805 (2019)

Tested on: SCA2.1 (DNA, aptamer) CTTACGACCTTAAGTGGGGTTCGGGTGGAGTTTATGGGGTCGTAAG
Test: ITC
Settings: 20 mM NaCl, 0.5 mM MgCl2; 10 mM Tris-HCl pH 7.4, 23 °C; pure enantiomer, one-site model

KD	SMILES
3.61 ± 0.12 µM	CCCC(C(=O)c1ccc2c(c1)OCO2)N1CCCC1 (stereo not drawn)
0.0465 ± 0.0075 µM	CCC[C@H](C(=O)c1ccc2c(c1)OCO2)N1CCCC1

Same assay, conditions: 20 mM NaCl, 0.5 mM MgCl2; 10 mM Tris-HCl pH 7.4, 23 °C; racemate, modified two-site model; site 1 of 2 (one enantiomer)

KD1	SMILES
0.16 ± 0.05 µM	CCC(NC)C(=O)c1ccc2c(c1)OCO2 (racemic)
0.0175 ± 0.0164 µM	CCCC(C(=O)c1ccc2c(c1)OCO2)N1CCCC1 (racemic)
0.09 ± 0.02 µM	CCCC(C(=O)c1ccccc1)N1CCCC1 (racemic)
0.10 ± 0.03 µM	CCNC(C)C(=O)c1ccc2c(c1)OCO2 (racemic)

Tested on: SCA2.1 (DNA, aptamer) CTTACGACCTTAAGTGGGGTTCGGGTGGAGTTTATGGGGTCGTAAG
Test: absorbance titration at 775 nm
Settings: 20 mM NaCl, 0.5 mM MgCl2; 10 mM Tris-HCl pH 7.4, 0.01% Tween 20, 1% DMSO, room temperature; 2 µM Cy7

KD	SMILES
1.6 µM	CCN1C(=CC=CC=CC=Cc2sc3ccccc3[n+]2CC)Sc2ccccc21

Tested on: SCA2.1 (DNA, aptamer) CTTACGACCTTAAGTGGGGTTCGGGTGGAGTTTATGGGGTCGTAAG
Test: Cy7 displacement, absorbance A670/A775
Settings: Cy7 (2 µM) displaced from 3 µM SCA2.1; 50 µM compound

SMILES	binding
CNC(C)C(=O)c1ccc(C)cc1 (stereo not drawn)	yes
CNC(C)C(=O)c1ccc(F)cc1 (stereo not drawn)	yes
CNC(C)C(=O)c1cccc(F)c1 (stereo not drawn)	yes
CNC(C)C(=O)c1ccccc1 (stereo not drawn)	yes
C[C@H](N)C(=O)c1ccccc1	yes

Continued, values first:

binding	SMILES
yes	CCCC(C(=O)c1ccc2ccccc2c1)N1CCCC1 (stereo not drawn)
yes	CCCC(NC)C(=O)c1ccc2c(c1)OCO2 (stereo not drawn)
yes	CNC(C)C(=O)c1ccc2c(c1)OCO2 (stereo not drawn)

Same assay, conditions: Cy7 (2 µM) displaced from 3 µM SCA2.1; highest concentration tested 50 µM

binding	SMILES
no	CC(=O)Nc1ccc(O)cc1
no	CCN(CC)CC(=O)Nc1c(C)cccc1C
no	CCOC(=O)c1ccc(N)cc1
no	CN[C@@H](C)[C@@H](O)c1ccccc1
no	Cn1c(=O)c2c(ncn2C)n(C)c1=O
no	OC[C@H]1O[C@@](CO)(O[C@H]2O[C@H](CO)[C@@H](O)[C@H](O)[C@H]2O)[C@@H](O)[C@@H]1O
